We go through 13 compounds from PubChem BioAssay (NCI).

Among the test systems are CAKI-1 renal; ACHN renal; SK-MEL-5 melanoma; NCI/ADR-RES ovarian; NCI-H460 lung; HCT-15 colon; SF-295 CNS; HOP-62 NSCLC; SF-539 CNS.
What all share (assay): inhibition of tumour cell growth, NCI panel, 48 h

The structures appear in SMILES notation.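 Results reflect a 48-hour exposure of cells in 96-well plates to compound at five concentrations. GI50 = concentration required for 50% inhibition of growth. TGI: total growth inhibition.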

`Cc1ccc2c(c1)-c1nc(N)c(C#N)c(-c3ccc(Cl)cc3)c1CCS2(=O)=O`: the TGI with CAKI-1 renal is above 100 µM; with ACHN renal it was above 100 µM; with SK-MEL-5 melanoma it was 40.2 µM; in the experiment on NCI/ADR-RES ovarian, above 100 µM; in the experiment with NCI-H460 lung it was above 100 µM; with HCT-15 colon, above 100 µM.

As for `COc1ccc(N2CC(=O)N(C(=O)COc3ccc(OCC(=O)N4C(=O)CN(c5ccc(OC)cc5)C4=S)cc3)C2=S)cc1`, the TGI in the experiment with CAKI-1 renal, with SF-295 CNS, in the experiment on ACHN renal, in the experiment on SK-MEL-5 melanoma, with NCI/ADR-RES ovarian and in the experiment with NCI-H460 lung was above 100 µM throughout. Further, the TGI in the experiment with HCT-15 colon is above 100 µM.

With `C[C@H](c1ccccc1)N1C(=O)[C@@H](O)[C@H]1[C@H](CO)OCc1ccccc1`, the TGI in the experiment with HOP-62 NSCLC, in the experiment with SF-295 CNS, in the experiment with ACHN renal, with SK-MEL-5 melanoma, in the experiment on NCI/ADR-RES ovarian and in the experiment on HCT-15 colon was above 100 µM each time.

Turning to `COC1=NCc2ccccc2-c2ccccc21`, the TGI in the experiment with SF-295 CNS, in the experiment with ACHN renal, in the experiment on SK-MEL-5 melanoma, in the experiment on SF-539 CNS, in the experiment with NCI-H460 lung and in the experiment on HCT-15 colon was above 100 µM in each case.

Take `O=S1(=O)c2ccccc2Oc2ccc(C(/C=N/O)=N/O)cc21`: the TGI is above 100 µM in the experiment with HOP-62 NSCLC; 42.2 µM in the experiment on CAKI-1 renal; 51.2 µM in the experiment on SF-295 CNS; above 100 µM with ACHN renal; 53.9 µM in the experiment on NCI/ADR-RES ovarian; 84.8 µM with SF-539 CNS. For the same compound, the TGI in the experiment with NCI-H460 lung and in the experiment on HCT-15 colon was above 100 µM each time.

For `O=c1[nH]c2nc3ccccc3c(=O)n2/c1=C/c1ccc(Cl)cc1`, the TGI in the experiment with HOP-62 NSCLC was above 100 µM; with CAKI-1 renal, above 100 µM; in the experiment with SF-295 CNS it was above 100 µM; in the experiment with ACHN renal, above 100 µM; in the experiment with NCI/ADR-RES ovarian, above 100 µM; in the experiment with SF-539 CNS it was 47.7 µM. In the experiment on HCT-15 colon, this compound came in with a TGI above 100 µM.

For `CC(=O)NC1C(OCc2ccccc2)OC(CO)C(O)C1OCC(=O)N1CCCC1C(=O)N[C@@H](CCC(=O)NCCCCNc1c2ccccc2nc2cccc([N+](=O)[O-])c12)C(N)=O` (stereo partly specified), the TGI in the experiment on HOP-62 NSCLC, in the experiment on CAKI-1 renal, in the experiment with SF-295 CNS, in the experiment on ACHN renal, with NCI/ADR-RES ovarian and in the experiment on SF-539 CNS was above 100 µM in each case. The results for the TGI in the experiment on NCI-H460 lung and in the experiment with HCT-15 colon were 61.4 µM and above 100 µM, respectively.

In the case of `C[C@@H](NC(C#N)c1ccco1)c1ccccc1` (stereo partly specified), the TGI in the experiment on HOP-62 NSCLC, with SF-295 CNS, in the experiment on ACHN renal, in the experiment with SK-MEL-5 melanoma, in the experiment on NCI/ADR-RES ovarian and in the experiment on SF-539 CNS was above 100 µM in each case. In addition, the TGI in the experiment with NCI-H460 lung and in the experiment with HCT-15 colon was above 100 µM throughout.

On to `CCn1nc(C)c2c1C(=O)NCC(=O)N2`, for which the TGI in the experiment on CAKI-1 renal, in the experiment with SF-295 CNS, in the experiment on ACHN renal, in the experiment with SK-MEL-5 melanoma, in the experiment with SF-539 CNS and with NCI-H460 lung was above 100 µM in each case. The same compound came in with a TGI with HCT-15 colon above 100 µM.

Turning to `CN(C)CCNc1ccc2c(=O)n(CCN(C)C)c(=O)n3c4ccc(O)cc4c(=O)c1c23`, the TGI is 0.148 µM with SF-295 CNS; below 0.01 µM in the experiment on ACHN renal; 0.211 µM with SK-MEL-5 melanoma; 9.39 µM in the experiment with NCI/ADR-RES ovarian; below 0.0389 µM in the experiment on SF-539 CNS; 0.174 µM in the experiment on NCI-H460 lung. Also, the TGI in the experiment with HCT-15 colon amounted to 4.35 µM.

For `CCCCN(CCCC)Cc1cc(Nc2ccnc3cc(Cl)ccc23)ccc1O`, the results for the GI50 in the experiment on HOP-62 NSCLC, in the experiment on SK-MEL-5 melanoma and in the experiment with NCI/ADR-RES ovarian were 2.54 µM, 8.29 µM and 4.38 µM, respectively. In addition, the TGI with HOP-62 NSCLC, with SK-MEL-5 melanoma and in the experiment with NCI/ADR-RES ovarian was above 100 µM each time.

Turning to `CN1CCC(CNc2cc(C3(C(=O)Nc4cc(C(=O)Nc5ccc(Cl)c(C(F)(F)F)c5)ccc4F)CC3)ncn2)CC1`, the GI50 in the experiment on HOP-62 NSCLC was 2 µM; in the experiment on ACHN renal it was 2.16 µM; in the experiment on NCI/ADR-RES ovarian, 5.46 µM; in the experiment on SF-539 CNS, 1.61 µM; in the experiment on NCI-H460 lung it was 2.13 µM; in the experiment on HCT-15 colon it was 1.6 µM. Besides, the TGI was found to be 3.97 µM in the experiment on HOP-62 NSCLC; 4.98 µM in the experiment on ACHN renal; 36.6 µM in the experiment on NCI/ADR-RES ovarian; 3.19 µM in the experiment on SF-539 CNS; 5.38 µM in the experiment with NCI-H460 lung; 4.19 µM in the experiment on HCT-15 colon.

Regarding `COc1cc(C2c3c(ccc4ccccc34)C(=O)C3CCC(=O)N32)cc(OC)c1OC` (stereo unspecified), the TGI in the experiment on HOP-62 NSCLC, with CAKI-1 renal, in the experiment on SF-295 CNS, with ACHN renal, with NCI/ADR-RES ovarian and in the experiment with SF-539 CNS was above 50 µM each time. Moreover, the TGI with NCI-H460 lung and in the experiment with HCT-15 colon was above 50 µM each time.
